# Earlier results, collected in patent US20060127910A1, “Bpl1 as an antifungal target” (priority 2002, published 2006).
# Details: mice, DOX 2 mg/ml in 5% sucrose solution as drinking water, approx. 5 ml per day
compound,measurement,setting,value
"C[C@H]1c2cccc(O)c2C(O)=C2C(=O)[C@]3(O)C(O)=C(C(N)=O)C(=O)[C@@H](N(C)C)[C@@H]3[C@@H](O)[C@@H]21 [DOX, doxycycline]",concentration of DOX in kidney,kidney,> 10 mg/g of kidney
same,concentration of DOX in liver,liver,> 8 mg/g of liver
same,concentration of DOX in serum,serum,more than 2 mg/ml of serum
